According to US7589099B2, “7-t-butoxyiminomethylcamptothecin conjugated in position 20 with integrin antagonists” (priority 2004, dated 2009):
Like-named read-outs stand apart in the source and are kept apart here. One block for each compound: values may come before it.

Columns and labels:
[1] = system: NCI-H460 non-small cell lung carcinoma; assay: Cytotoxicity, sulphorodamine B test, NCI-H460; type: cell-based, human; conditions: 2 h of treatment (followed by 72 h of recovery), read-out: NCI-H460 IC50 ± SD
Protocol: (§1) To evaluate the effect of the compound on survival cells, the sulphorodamine B test was used. To test the effects of the compounds on cell growth, PC3 human prostate carcinoma, A498 human renal carcinoma, A2780 human ovarian carcinoma cells and NCI-H460 non-small cell lung carcinoma were used. A2780, NCI-H460 and PC3 tumor cells were grown RPMI 1640 containing 10% fetal bovine serum (GIBCO), whereas A498 tumor cells were grown in EMEM containing 10% fetal bovine serum (GIBCO).
Tumor cells were seeded in 96-well tissue culture plates (Corning) at approximately 10% confluence and were allowed to attach and recover for at least 24 h. […] The plates were incubated for 72 h at 37° C. or 2 h followed by 72 h of recovery. At the end of the treatment, the plates were washed by removal of the surnatant and addition of PBS 3 times. 200 μl PBS and 50 μl of cold 80% TCA were added. The plates were incubated on ice for at least 1 h. […]
(§2) Then 200 μl Tris 10 mM were added, the plates were kept under stirring for 20 min. The survival cell was determined as optical density by a Multiskan spectrofluorimeter at 540 nm. The amount of cells killed was calculated as the percentage decrease in sulphorodamine B binding compared with control cultures.
(§3) The IC50 values were calculated with the “ALLFIT” program.

purified αvβ3 receptor = biological target: T1, purified αvβ3 receptor (Homo sapiens, UniProt P05106+P06756); assay: Binding to integrin αvβ3 receptors ([125I]echistatin competition)
T1 construct: purchased Chemicon CC1020
Protocol: (§4) An aliquot of 100 μl was added to 96-well plates and incubated overnight at +4° C. Plates were washed once with buffer (50 mM Tris, pH 7,4, 100 mM NaCl, 2 mM CaCl2, 1 mM MgCl2, 1 mM MnCl2, 1% bovine serum albumin) and then incubated for another 2 hours at room temperature. Plates were washed twice with the same buffer and incubated for 3 hours at room temperature with the radioactive ligand [^125I]echistatin (Amersham Pharmacia Biotech) 0.05 nM in the presence of competition ligands. At the end of incubation, the wells were washed and the radioactivity determined using a gamma counter (Packard). Non-specific binding of the ligand was determined in the presence of excess cold echistatin (1 μM).
(§5) The IC50 parameter was elaborated using “ALLFIT” software.

purified αvβ5 receptor = biological target: T2, purified αvβ5 receptor (Homo sapiens, UniProt P06756+P18084); assay: Binding to integrin αvβ5 receptors ([125I]echistatin competition)
T2 construct: purchased Chemicon CC1020
Protocol: as §4, with “7.4,” for “7,4,”, “0.15” for “0.05”, “Non-specific ligand” for “Non-specific”, “binding” for “binding of the ligand”
as §5

[2] = system: A2780 human ovarian carcinoma cells; assay: cells; type: cell-based
Protocol: as §1
(§6) Tumor cells were seeded in 96-well tissue culture plates (Corning) at approximately 10% confluence and were allowed to attach and recover for at least 24 h. […] The plates were incubated for 72 h at 37° C. or 2 h followed by 72 h of recovery. At the end of the treatment, the plates were washed by removal of the surnatant and addition of PBS 3 times. 200 μl PBS and 50 μl of cold 80% TCA were added. The plates were incubated on ice for at least 1 h. TCA was removed, the plates were washed 3 times for immersion in distilled-water and dried on paper and at 40° C. for 5 min.
(§7) Then 200 μl of 0.4% sulphorodamine B in 1% acetic acid were added. The plates were incubated at room temperature for other 30 min. Sulphorodamine B was removed, the plates were washed for immersion in 1% acetic acid for 3 times, then they were dried on paper and at 40° C. for 5 min.
as §2, §3

[3] = system: A498 human renal carcinoma; assay: cells; type: cell-based
Protocol: as §1, §6, §7, §2, §3

[4] = system: PC3 human prostate carcinoma; assay: cells; type: cell-based
Protocol: as §1, §6, §7, §2, §3

Compound: 20-O-Val-gimatecan [ST2678]
IC50 [1]: 25 ± 2 nM

Compound: CC[C@@]1(OC(=O)[C@@H](NC(=O)CCC(=O)NCc2ccc(C[C@@H]3NC(=O)C(Cc4ccccc4)NC(=O)[C@H](CC(=O)O)NC(=O)CNC(=O)[C@H](CCCNC(=N)N)NC3=O)cc2)C(C)C)C(=O)OCc2c1cc1n(c2=O)Cc2c-1nc1ccccc1c2/C=N/OC(C)(C)C (stereo partly drawn) [ST2670]
IC50 (purified αvβ3 receptor): 47.7 ± 0.9 nM | IC50 (purified αvβ5 receptor): 74 ± 0.8 nM | IC50 ([2]; 72 h): 400 nM | IC50 ([3]; 72 h): 1600 ± 300 nM | IC50 ([4]; 72 h): 9600 ± 600 nM

Compound: CC[C@@]1(OC(=O)[C@@H](NC(=O)[C@@H](N)CC(=O)NCc2ccc(C[C@@H]3NC(=O)C(Cc4ccccc4)NC(=O)[C@H](CC(=O)O)NC(=O)CNC(=O)[C@H](CCCNC(=N)N)NC3=O)cc2)C(C)C)C(=O)OCc2c1cc1n(c2=O)Cc2c-1nc1ccccc1c2/C=N/OC(C)(C)C (stereo partly drawn) [ST2671]
IC50 (purified αvβ3 receptor): 22.8 ± 1.2 nM | IC50 (purified αvβ5 receptor): 54.2 ± 0.5 nM | IC50 ([4]; 72 h): 350 ± 80 nM | PC3 IC50 ± SD ([4]; 72 h of treatment): potent cytotoxicity

Compound: CC[C@@]1(OC(=O)[C@@H](NC(=O)[C@H](CC(=O)O)NC(=O)OC(C)(C)C)C(C)C)C(=O)OCc2c1cc1n(c2=O)Cc2c-1nc1ccccc1c2/C=N/OC(C)(C)C [ST2676, 20-O-Val-Asp-gimatecan]
IC50 ([2]; Homo sapiens, A2780, 72 h of treatment, read-out: A2780 IC50 ± SD): < 0.97 nM | IC50 ([3]; Homo sapiens, A498, 72 h of treatment, read-out: A498 IC50 ± SD): 47 ± 5 nM | IC50 ([4]; Homo sapiens, 72 h of treatment, read-out: PC3 IC50 ± SD): 38 ± 4 nM | IC50 ([1]; Homo sapiens, NCI-H460): 170 ± 20 nM

IC50 (purified αvβ5 receptor; RGD peptides, [125I]echistatin 0.15 nM, read-out: αvβ5 IC50 ± SD): 0.9 ± 0.005 nM
Compound: CN1C(=O)[C@@H](Cc2ccccc2)NC(=O)[C@H](CC(=O)O)NC(=O)CNC(=O)[C@H](CCCNC(=N)N)NC(=O)[C@@H]1Cc1ccc(CN)cc1 [ST2700]
